Data set [1] relates to patients with myasthenic syndromes. The following applies: among 132 patients enrolled, cited from earlier work.
Data set [2] concerns patient with Lambert-Eaton myasthenic syndrome who also suffered from orthostatic hypotension. The experiment in a line: blood pressure and heart rate response to head-up tilt before and after 3,4-DAP. The class given is in vivo, human. The following applies: one patient, after oral administration of 20 mg 3,4-DAP; before administration a significant drop was observed (FIG. 1). As to the method: FIG. 1 is a graph plotting the blood pressure and heart rate response to head-up tilt in a patient with orthostatic hypotension before (left) and after (right) oral administration of 20 mg of 3,4-DAP.
The effects of administering 3,4-DAP to a patient with orthostatic hypotension were studied. Briefly, the blood pressure and heart rate response to head-up tilt was studied in a patient with Lambert-Eaton myasthenic syndrome who also suffered from orthostatic hypotension before and after oral administration of 20 mg 3,4-DAP. Before administration of 3,4-DAP, a significant orthostatic blood pressure drop was observed after a head-up tilt (FIG. 1, left).

Take `Nc1ccncc1N` [3,4-DAP, 3,4-diaminopyridine]: the seizures result in data set [1] (after being on the medication for years, clear cause-effect relationship not established) was “two patients experienced a self-limited seizure”. Moreover, in data set [1], the “complications related to cardiac arrhythmias” value was “no noted complications related to cardiac arrhythmias”. Besides, the “orthostatic blood pressure drop after a head-up tilt” value in data set [2] is reported as “did not exhibit a significant orthostatic blood pressure drop”.

The values above are taken from patent US20150374691A1, “METHODS AND MATERIALS FOR TREATING ORTHOSTATIC HYPOTENSION OR POSTURAL TACHYCARDIA SYNDROME” (Mayo Foundation for Medical Education and Research, priority 2009, published 2015).
